Assay results: publication PMC11024357 (Frontiers in Pharmacology, 2024)
Where two headings read alike, the source gives them in different places.

Experiments:
[1] = no reference given; cited from earlier work
[2] = set-up: method as in Summary of Product Characteristics; details: ref Summary of Product Characteristics; cited from earlier work
[3] = Tacrolimus blood pharmacokinetics without and with omeprazole 20 mg or famotidine 20 mg in kidney transplant patients (CMIA, non-compartmental analysis); assay type: in vivo, human; details: for Effect of single 20 mg co-administration on tacrolimus pharmacokinetic parameters: kidney transplant patients, day 2 vs day 1; for the mean C0/D ratio: pre-dose concentration / daily dose; for C0h, Q1: first quartile; for C0h, Q2: median; for C0h, Q3: third quartile; for concentration at 2 h / concentration at 6 h / AUC(0-t) / Cmax / AUC: human, whole blood, oral; for concentration at 2 h: read-out: C2; for concentration at 6 h: read-out: C6; for AUC(0-t): read-out: AUC0-6; for AUC: read-out: AUC2-6
Excerpt: The study, randomized, non-blinded, comprised 24 stabilized adult patients between 1–12 months after kidney transplantation (NCT05061303), who received a kidney from a deceased donor. Inclusion criteria were time since kidney transplantation (1–12 months after kidney transplantation) and standard immunosuppressive regimen (tacrolimus, mycophenolate mofetil, prednisone/methylprednisolone/deflazacort). In this group, 2 individuals withdrew their informed consent and were excluded from study. Each randomized patient was admitted to the Department of Nephrology, Transplantology and Internal Diseases of Poznan University of Medical Sciences for 2 days (48 h). The study used the simple randomization method. One of the authors of the study (no the principal researcher) generated a randomized sequence for assigning patients to groups. The random component (computer-generated random numbers) was used in the sequence generation process. Figure 1 presented CONSORT flow chart. No participant changed the group during the study. Standard laboratory tests (creatinine, estimated glomerular filtration rate (eGFR), complete blood count, proteinuria, erythrocyturia) were performed during the first 2 days of participation in the study. In addition, the glomerular filtration rate (GFR) was calculated for each patient using The Chronic Kidney Disease Epidemiology Collaboration (CKD-EPI) creatinine equation to estimate GFR. […] Patients received tacrolimus once daily in the form of tacrolimus monohydrate prolonged-release tablets (Envarsus®, Chiesi Farmaceutici), registration numbers: EU/1/14/935/00, EU/1/14/935/004, EU/1/14/935/006, EU/1/14/935/007 or in the form of tacrolimus monohydrate prolonged-release hard capsules (Advagraf®, Astellas Pharma Europe), registration numbers: EU/1/07/387/001, EU/1/07/387/003, EU/1/07/387/011, EU/1/07/387/007. […] All patients before the start of the study achieved tacrolimus steady state. […] The results were used to obtain the values of pharmacokinetic parameters and statistical evaluation. No study-related adverse events were reported by patients, physicians, medical staff, or others during the study.
In order to establish the tacrolimus metabolism rate in the patients, the blood concentration normalized by the dose (C/D ratio) was calculated. The C0/D ratio can be calculated by dividing the tacrolimus pre-dose concentration (C0) by the corresponding daily tacrolimus dose (D). […] The fast metabolizers group included patients with a C/D ratio of <1.05 ng/mL*1/mg, whereas if the aforementioned ratio was ≥1.55 ng/mL*1/mg, the participants were described as slow metabolizers ([Tholking et al., 2014]).
Tacrolimus concentrations were determined using CMIA, by means of Alinity i analyser ([Mei et al., 2018]). Samples were stored frozen (−10°C or below) for no longer than 6 months. Each sample was thoroughly mixed prior to determining concentration, and 200 μL of each sample was pipetted into a centrifuge tube. Subsequently, the dispenser was filled with the appropriate volume of […] Tacrolimus Whole Blood Precipitation Reagent, followed by the removal of air bubbles from the dispenser. 200 μL of […] Tacrolimus Whole Blood Precipitation Reagent was added to the contents of the first centrifuge tube. Each individual tube was capped, mixed immediately after adding the reagent and centrifuged for 5–10 s. The tubes were then centrifuged again for 4 min. Each tube was uncapped and the supernatant was decanted (poured off) into a Graft Pre-Treatment Tube. They were then vortexed for 5–10 s and assayed for the concentrations of tacrolimus.
Calibration was performed in duplicate samples by testing Calibrators A, B, C, D, E and F. Control samples were prepared by mixing 150 μL of the patient sample and 150 μL of […] Tacrolimus Calibrator A. One sample for each control level was tested once every 24 h as a quality control test. […]

[4] = set-up: method as in Takahashi et al., 2007; details: ref Takahashi et al., 2007, cited from earlier work
[5] = set-up: method as in Susal and Dohler, 2019; details: ref Susal and Dohler, 2019, cited from earlier work
[6] = 2012, cited from earlier work
[7] = 0.0376 mg/kg, group II, no FA (day 1)
[8] = 0.0611 mg/kg, group I, no OM (day 1)
[9] = 20 mg, group II, FA 20 mg (day 2)
[10] = with omeprazole 20 mg (day 2) vs no omeprazole (day 1)

For `COc1ccc2[nH]c([S+]([O-])Cc3ncc(C)c(OC)c3C)nc2c1` (stereo not shown) [omeprazole], the “bound to plasma proteins” value [1] is given as “approximately 95%”, the “elimination half-life in the body” value [2] is given as “shorter than an hour” and the “Effect of single 20 mg co-administration on tacrolimus pharmacokinetic parameters” value [3] is given as “significantly increases blood exposure of tacrolimus”.

With `NC(N)=Nc1nc(CSCCC(N)=NS(N)(=O)=O)cs1` [famotidine] the “Effect of single 20 mg co-administration on tacrolimus pharmacokinetic parameters” value [3] was “no significant changes”.

In the case of `C=CC[C@@H]1/C=C(\C)C[C@H](C)C[C@H](OC)[C@H]2O[C@@](O)(C(=O)C(=O)N3CCCC[C@H]3C(=O)O[C@H](/C(C)=C/[C@@H]3CC[C@@H](O)[C@H](OC)C3)[C@H](C)[C@@H](O)CC1=O)[C@H](C)C[C@@H]2OC` [tacrolimus], the “bound to plasma proteins” value [1] is given as “approximately 99%”, the “blood concentrations of tacrolimus” value ([4]; after switching omeprazole to oral rabeprazole 10 mg/day (day 21)) is given as “approximately 10 ng/mL” and the tacrolimus trough levels ([4]; on omeprazole, despite dose reductions from 17 to 9 mg/day) is given as “above 15 ng/mL”. The “trough concentration of tacrolimus” value ([4]; post-transplant day 17, daily oral dose 17 mg, on ranitidine) was 12.5 ng/mL, the tacrolimus trough levels ([4]; post-transplant day 19, after start of intravenous omeprazole on day 18) was 30.0 ng/mL and the “6-year survival of the kidney graft” value ([5]; tacrolimus C0 4.0–4.9 ng/mL) was 86.5%. For the same compound, the “6-year survival of the kidney graft” value ([5]; tacrolimus C0 5.0–6.9 ng/mL in the first 3 years after transplantation) was “over 88%”, the “6-year survival of the kidney graft” value ([5]; tacrolimus C0 7.0–8.9 ng/mL in the first 3 years after transplantation) was “over 88%” and the “6-year survival of the kidney graft” value ([5]; tacrolimus C0 <4 ng/mL) was 82.6%. For the same compound, the “6-year survival of the kidney graft” value ([5]; tacrolimus C0 ≥9 ng/mL) was 87.5%, the “increase in tacrolimus concentrations after omeprazole administration” value ([6]; kidney transplant patient, ref Zhao WFM. et al.) was “more than four-fold increase” and the “tacrolimus blood trough level (C0)” value ([6]; postoperative day 3, 9 mg twice daily, before omeprazole, ref Zhao W. et al.) was 19.6 ng/mL. The “tacrolimus blood trough level (C0)” value ([6]; postoperative day 4, 9 mg twice daily, before omeprazole, ref Zhao W. et al.) was 29.2 ng/mL, the serum creatinine (acute nephrotoxicity) ([6]; postoperative day 6, at tacrolimus C0 92 ng/mL with omeprazole, ref Zhao W. et al.) was 160 µM and the “tacrolimus blood trough level (C0)” value ([6]; postoperative day 6, dose reduced to 7 mg, omeprazole given on day 5, ref Zhao W. et al.) was 92 ng/mL. The “the mean C0/D ratio” value ([3]; Group I (omeprazole group), mean ± SD) was 2.02 ± 1.14 ng/mL*1/mg, the “the mean C0/D ratio” value ([3]; Group II (famotidine group), mean ± SD) was 2.49 ± 0.76 ng/mL*1/mg and the C2 ([3]; group I, 2 h, OM 20 mg (day 2)) was 11.90 ± 5.03 ng/mL. For the same compound, the “AUC 0–6 normalized by the dose” value ([3]; group I, OM 20 mg (day 2)) was 1308.01 ± 595.19 (ng × h/mL)/(mg/kg), the “AUC 2–6 normalized by the dose” value ([3]; group I, OM 20 mg (day 2)) was 939.13 ± 453.89 (ng × h/mL)/(mg/kg) and the AUC0-6 ([3]; group I, no OM (day 1)) was 54.23 ± 10.48 ng·h/mL. For the same compound, the “AUC 2–6 normalized by the dose” value ([3]; group I, no OM (day 1)) was 832.98 ± 415.81 (ng × h/mL)/(mg/kg), the “AUC 0–6 normalized by the dose” value ([3]; group II, FA 20 mg (day 2)) was 1784.71 ± 447.89 (ng × h/mL)/(mg/kg) and the AUC2-6 ([3]; group II, FA 20 mg (day 2)) was 44.05 ± 11.28 ng·h/mL. For the same compound, the “AUC 2–6 normalized by the dose” value ([3]; group II, FA 20 mg (day 2)) was 1268.57 ± 329.31 (ng × h/mL)/(mg/kg), the “C0h, Q1” value ([3]; group II, FA 20 mg (day 2)) was “Q1: 5.60 ng/mL” and the “C0h, Q2” value ([3]; group II, FA 20 mg (day 2)) was “Q2: 7.30 ng/mL”. For the same compound, the “C0h, Q3” value ([3]; group II, FA 20 mg (day 2)) was “Q3: 7.95 ng/mL”, the “AUC 0–6 normalized by the dose” value ([3]; group II, no FA (day 1)) was 1677.84 ± 358.32 (ng × h/mL)/(mg/kg) and the “AUC 2–6 normalized by the dose” value ([3]; group II, no FA (day 1)) was 1196.79 ± 279.50 (ng × h/mL)/(mg/kg). The “C0h, Q1” value ([3]; group II, no FA (day 1)) was “Q1: 5.25 ng/mL”, the “C0h, Q2” value ([3]; group II, no FA (day 1)) was “Q2: 6.50 ng/mL” and the “C0h, Q3” value ([3]; group II, no FA (day 1)) was “Q3: 8.80 ng/mL”. It also gave a concentration at 2 h ([3]; 0.0376 mg/kg, group II, 2 h, no FA (day 1)) of 10.3 ± 4.64 ng/mL, a concentration at 6 h [3, 7] of 10.8 ± 3.16 ng/mL and an AUC(0-t) [3, 7] of 59.1 ± 16.6 ng·h/mL. For the same compound, the concentration at 2 h ([3]; 0.0611 mg/kg, group I, 2 h, no OM (day 1)) was 9.4 ± 2.5 ng/mL, the concentration at 6 h [3, 8] was 9.94 ± 3.03 ng/mL and the Cmax ([3]; 0.0611 mg/kg, group I, no OM (day 1), mean ± SD) was 11.2 ± 2.34 ng/mL. For the same compound, the AUC [3, 8] was 38.7 ± 7.7 ng·h/mL, the Cmax ([3]; 20 mg, group I, OM 20 mg (day 2), mean ± SD) was 13.1 ± 4.3 ng/mL and the AUC(0-t) ([3]; 20 mg, group I, OM 20 mg (day 2)) was 63.1 ± 19.5 ng·h/mL. For the same compound, the Cmax [3, 9] was 13.1 ± 4.17 ng/mL, the AUC(0-t) [3, 9] was 62.1 ± 15.9 ng·h/mL and the concentration at 2 h ([3]; group I, 2 h, OM 20 mg (day 2)) was 11.9 ± 1.59 ng/mL. It also gave a concentration at 2 h ([3]; group I, 2 h, no OM (day 1)) of 9.4 ± 0.79 ng/mL, a concentration at 6 h ([3]; group I, OM 20 mg (day 2)) of 10.3 ± 1.99 ng/mL and a concentration at 2 h ([3]; group II, 2 h, FA 20 mg (day 2)) of 11 ± 4.27 ng/mL. The concentration at 6 h ([3]; group II, FA 20 mg (day 2)) was 11 ± 3.53 ng/mL, the AUC ([3]; group I, OM 20 mg (day 2)) was 44.3 ± 11.5 ng·h/mL and the Cmax ([3]; group II, no FA (day 1)) was 12.7 ± 4.39 ng/mL. The AUC ([3]; group II, no FA (day 1)) was 42 ± 11.5 ng·h/mL, the “Increase of tacrolimus AUC0-6” value [3, 10] was 16.30% and the “Increase of tacrolimus AUC0-6 normalized by the dose” value [3, 10] was 12.88%. The “Increase of tacrolimus AUC2-6” value [3, 10] was 14.58%, the “Increase of tacrolimus AUC2-6 normalized by the dose” value [3, 10] was 12.74% and the “Increase of tacrolimus C2h” value [3, 10] was 26.60%.
